Assay results reported in the supplement of paper PMC10307832.

Key:
Assay in all cases: relative viability (nuclei count vs DMSO), 5 days (fraction); higher = more cells survive
Shikonin = compound: CC(C)=CC[C@@H](O)C1=CC(=O)c2c(O)ccc(O)c2C1=O [Shikonin]
Method in brief: (§1)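 In 1536-well plates, lung cancer cell lines rested overnight at 37 °C before five library-drug doses (not always all listed), √10 apart, were pinned onto vehicle-anchored plates. Nuclei were counted with MetaXpress from 4× Hoechst images taken after 5 days without medium change. Viability compares treated-well with vehicle-well nuclei as a median over plates, and plates needed control CV below 25% plus at least one doubling to pass.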

[1] = compound: CC(C)N(CCCNC(=O)Nc1ccc(C(C)(C)C)cc1)C[C@H]1O[C@@H](n2ccc3c(N)ncnc32)[C@H](O)[C@@H]1O
Method in brief: as §1

Shikonin + Alpelisib = compound: CC(C)=CC[C@@H](O)C1=CC(=O)c2c(O)ccc(O)c2C1=O [Shikonin] + Cc1nc(NC(=O)N2CCC[C@H]2C(N)=O)sc1-c1ccnc(C(C)(C)C(F)(F)F)c1 [Alpelisib] (partner 2 µM)
Method in brief: (§2)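 A single step with final 0.05% Triton X-100, 1% formaldehyde and 1 ug/ml Hoechst fixed the cells and stained nuclei 5 days after treatment. Lung cancer cell lines in 1536-well plates had been treated by pin tool the day after seeding with one drug alone or a fixed anchor-drug dose plus five library-drug doses (not always all listed) in √10 steps, and nuclei were counted on 4× images. Relative viability is the ratio of nuclei in treated wells to nuclei in vehicle wells, taken as the median of duplicate plates.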

[2] = compound: CC(C)N(CCCNC(=O)Nc1ccc(C(C)(C)C)cc1)C[C@H]1O[C@@H](n2ccc3c(N)ncnc32)[C@H](O)[C@@H]1O + Nc1nc2[nH]cc(CCc3ccc(C(=O)N[C@@H](CCC(=O)O)C(=O)O)cc3)c2c(=O)[nH]1 [Pemetrexed] (partner 0.2 µM)
Method in brief: as §2

Row | Cell Line | relative viability (Shikonin; 0.01 µM) | relative viability (Shikonin; 0.1 µM) | relative viability (Shikonin; 0.3162 µM) | relative viability (Shikonin; 1 µM) | relative viability ([1]; 0.08 µM) | relative viability ([1]; 0.253 µM) | relative viability ([1]; 0.8 µM) | relative viability ([1]; 2.53 µM) | relative viability ([1]; 8 µM) | relative viability (Shikonin + Alpelisib; first compound 0.01 µM) | relative viability (Shikonin + Alpelisib; first compound 0.1 µM) | relative viability (Shikonin + Alpelisib; first compound 0.3162 µM) | relative viability (Shikonin + Alpelisib; first compound 1 µM) | relative viability ([2]; first compound 0.08 µM) | relative viability ([2]; first compound 0.253 µM) | relative viability ([2]; first compound 2.53 µM) | relative viability ([2]; first compound 8 µM) | relative viability ([2]; first compound 0.8 µM)
1 | 201T | 1 | 1.06 | 1.02 | 1.09 | 1 | 1.02 | 0.746 | 0.981 | 1.02 | 0.941 | 1.11 | 0.997 | 1.02 | 0.334 | 0.368 | 0.304 | 0.351 | 
2 | A549 | 1.02 | 0.956 | 1.07 | 0.997 | 0.93 | 0.877 | 1.02 | 0.94 | 0.933 | 0.789 | 0.81 | 0.708 | 0.753 |  |  |  |  | 
3 | A-427 | 1.03 | 1.17 | 1.02 | 1.16 | 0.962 | 0.93 | 1.03 | 0.958 | 0.984 | 1.12 | 1.2 | 1.07 | 1.13 | 1.05 | 0.998 | 0.929 | 0.99 | 0.937
4 | ABC-1 | 0.921 | 1.13 | 0.91 | 0.764 | 0.859 | 0.797 |  | 1.05 | 1.01 | 1.17 | 1.3 | 0.901 | 0.514 |  |  |  |  | 
5 | BEN | 0.926 | 1 | 1.03 | 1.18 | 0.954 | 1.02 | 0.948 | 0.863 | 1.03 | 1.09 | 1.1 | 1.12 | 1.24 | 0.705 | 0.646 | 0.694 | 0.72 | 0.762
6 | CAL-12T | 1.03 | 1.07 | 0.981 | 0.991 | 0.937 | 0.906 | 0.992 | 0.969 | 0.938 | 1.14 | 1.13 | 1.19 | 1.2 | 1.21 | 1.16 | 0.983 | 1.05 | 1.1
7 | COR-L23 | 1.18 | 1.02 | 1.12 | 0.995 | 1.04 | 1.03 | 1.08 | 1.01 | 1.02 | 0.845 | 0.913 | 0.86 | 0.719 | 0.188 | 0.203 | 0.2 | 0.21 | 0.202
8 | COR-L 105 | 0.979 | 0.973 | 0.911 | 0.855 | 0.887 | 0.943 | 0.921 | 0.943 | 0.923 | 1.09 | 1.18 | 1.07 | 0.728 | 1.09 | 1.01 | 1.11 | 0.956 | 1.18
9 | Calu-6 | 1.05 | 1.11 | 1.04 | 0.93 | 1 | 1.03 | 0.996 | 1.04 | 0.966 | 0.921 | 1.23 | 0.88 | 0.934 |  |  |  |  | 
10 | ChaGo-K-1 | 1.02 | 0.971 | 1.05 | 1.02 | 0.97 | 0.889 | 0.918 | 0.96 | 1.06 |  |  |  |  | 0.261 | 0.256 | 0.258 | 0.268 | 0.259
11 | EBC-1 | 1.06 | 0.997 | 1.05 | 0.962 | 0.926 | 0.96 | 0.874 | 0.941 | 0.808 | 0.829 | 0.809 | 0.85 | 0.843 |  |  |  |  | 
12 | IA-LM | 1.13 | 0.875 | 1.05 | 0.859 | 1.02 | 0.879 | 1.02 | 0.963 | 0.84 | 0.862 | 0.667 | 0.637 | 0.69 |  |  |  |  | 
13 | NCI-H522 | 0.962 | 1.09 | 0.955 | 0.956 | 0.868 | 0.898 | 0.885 | 0.99 | 0.997 |  |  |  |  | 0.991 | 0.944 | 1.01 | 1.04 | 0.904
14 | NCI-H727 | 0.916 | 1.03 | 0.933 | 1.02 | 0.867 | 0.815 | 0.868 | 0.931 | 0.943 | 0.447 | 0.547 | 0.62 | 0.405 |  |  |  |  | 
15 | NCI-H1299 | 1.05 | 1.06 | 1.01 | 0.973 | 0.979 | 1.01 | 0.955 | 0.999 | 0.963 | 1.11 | 1.06 | 1.04 | 1.07 |  |  |  |  | 
16 | NCI-H1648 | 0.911 | 0.686 | 1.07 | 1.08 | 0.756 | 0.935 | 0.68 | 0.784 | 0.823 |  |  |  |  | 0.741 | 0.81 | 0.6 | 0.942 | 0.472
17 | NCI-H1650 | 0.914 | 0.992 | 0.782 | 0.962 | 0.865 | 0.909 |  | 0.952 | 0.934 |  |  |  |  | 0.306 | 0.395 | 0.35 | 0.277 | 0.34
18 | NCI-H1703 | 0.994 | 1.21 | 0.864 | 0.646 | 0.913 | 1.04 | 0.803 | 1.03 | 0.782 | 0.317 | 0.277 | 0.287 | 0.244 |  |  |  |  | 
19 | NCI-H2342 | 0.941 | 0.943 | 1.11 | 0.991 | 1.01 | 1.08 | 0.815 | 1.01 | 1.05 |  |  |  |  | 0.807 | 0.722 | 0.718 | 0.801 | 0.729
20 | SW 900 | 0.746 | 0.918 | 0.709 | 0.851 | 0.787 | 0.705 |  | 0.886 | 0.812 |  |  |  |  | 0.472 | 0.469 | 0.475 | 0.441 | 
